These results are taken from BindingDB's records for patent WO2022098806 (MERCK SHARP & DOHME LLC, 2022).

pIC50: −log10 of the molar value. Several values for one entry are separate records, joined by “and”; a condition that tells them apart may be missing. Equal values may be shown once.

A word on the pIC50: it is the negative decadic logarithm of the IC50, by convention in mol/L. A higher pIC50 goes with a low IC50.

The target in the test is Mitogen-activated protein kinase kinase kinase kinase 1 (Homo sapiens, UniProt Q92918). Nature of the test: HPK1-SLP76 TR-FRET ASSAY. In general terms: In TR-FRET formats the signal depends on donor and acceptor labels being close together.
Mitogen-activated protein kinase kinase kinase kinase 1, sequence (Q92918 whole entry): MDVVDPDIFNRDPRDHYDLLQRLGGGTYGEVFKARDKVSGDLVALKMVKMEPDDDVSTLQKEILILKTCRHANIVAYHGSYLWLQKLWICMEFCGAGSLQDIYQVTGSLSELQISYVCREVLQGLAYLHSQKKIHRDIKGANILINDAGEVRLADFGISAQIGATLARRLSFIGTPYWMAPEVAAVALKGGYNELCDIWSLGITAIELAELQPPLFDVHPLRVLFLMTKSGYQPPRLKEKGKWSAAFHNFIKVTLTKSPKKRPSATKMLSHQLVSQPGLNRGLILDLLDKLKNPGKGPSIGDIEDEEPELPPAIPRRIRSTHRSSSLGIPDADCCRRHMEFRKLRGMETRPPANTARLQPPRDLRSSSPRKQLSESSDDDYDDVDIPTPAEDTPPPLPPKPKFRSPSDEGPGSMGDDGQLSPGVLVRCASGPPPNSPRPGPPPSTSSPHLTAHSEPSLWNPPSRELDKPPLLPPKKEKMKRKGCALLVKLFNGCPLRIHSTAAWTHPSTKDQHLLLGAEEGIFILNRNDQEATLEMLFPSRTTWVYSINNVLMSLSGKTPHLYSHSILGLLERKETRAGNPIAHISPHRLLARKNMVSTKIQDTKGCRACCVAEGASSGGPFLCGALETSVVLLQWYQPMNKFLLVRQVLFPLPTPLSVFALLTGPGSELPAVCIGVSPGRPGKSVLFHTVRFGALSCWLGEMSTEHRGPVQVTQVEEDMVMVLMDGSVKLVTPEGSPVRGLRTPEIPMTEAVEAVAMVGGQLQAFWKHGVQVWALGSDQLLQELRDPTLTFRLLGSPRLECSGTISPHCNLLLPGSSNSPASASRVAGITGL

Regarding `Cc1c(-c2cc3nc(Nc4cccc(S(=O)(=O)NC(C)(C)C)c4)ncc3c(N)c2F)cnc2c1NCCO2` [WO2022098806, Compound 2-33], the pIC50 was 9.72. Take `CNC(=O)C1(c2ccc(Nc3ncc4c(N)c(F)c(-c5cnc6c(c5C)NCCO6)cc4n3)cc2)CCCCC1` [WO2022098806, Compound 2-80]: the pIC50 was 10.15. To `COc1cc2c(cc1Nc1ncc3ccc(-c4cnn(CC(C)O)c4)cc3n1)CN(C)CC2` (centres undefined) [WO2022098806, Compound 1-102] belongs 7.66. As to `Cc1c(-c2cc3nc(Nc4ccc([C@H](C)S(C)(=O)=O)cc4)ncc3cc2F)cnc2c1NCCO2` [WO2022098806, Compound 1-124], the pIC50 is 10.40. `Cc1c(-c2cc3nc(Nc4ccc(CC(=O)N5CCOCC5)cc4)ncc3cc2F)cnc2c1NCCO2` [WO2022098806, Compound 1-133]: the pIC50 is 10.10. With `COc1cc2c(cc1Nc1ncc3ccc(NCC4(C)CCC4)cc3n1)CN(C)CC2` [WO2022098806, Compound 3-62], the pIC50 was 6.95.

For `CC(=O)N[C@H]1CCc2cc(Nc3ncc4c(N)c(F)c(-c5cnc6c(c5C)NCCO6)cc4n3)ccc21` [WO2022098806, Compound 2-11], the pIC50 is 10.10. `Cc1c(-c2cc3nc(Nc4ccc5c(c4)C4CCC5N4C)ncc3c(N)c2F)cnc2c1NCCO2` (centres undefined) [WO2022098806, Compound 2-121] gave a pIC50 of 10.70.

On to `COc1cc2c(cc1Nc1ncc3ccc(Oc4ccc(C(=O)N5CCN(C(C)=O)CC5)cc4)cc3n1)CN(C)CC2` [WO2022098806, Compound 4-7], for which the pIC50 was 6.65.

Take `COc1cc2c(cc1Nc1ncc3ccc(Nc4nc(S(C)(=O)=O)ccc4F)cc3n1)CN(C)CC2` [WO2022098806, Compound 3-36]: the pIC50 is 8.38.

For `Cc1c(-c2cc3nc(Nc4ccc(CS(=O)(=O)C5CC5)cc4)ncc3c(N)c2F)cnc2c1NCCO2` [WO2022098806, Compound 2-136], the pIC50 is 10.00. As to `Cc1c(-c2cc3nc(Nc4ccc([C@@H](C)S(C)(=O)=O)cc4)ncc3cc2F)cnc2c1NCCO2` [WO2022098806, Compound 1-126], the pIC50 was 9.17. Consider `COc1cc2c(cc1Nc1ncc3ccc(-c4cncc5cccnc45)cc3n1)CN(C)CC2` [WO2022098806, Compound 1-24], for which the pIC50 was 8.00. `COc1cc2c(cc1Nc1ncc3ccc(N4CC5(CCOC5)OC4=O)cc3n1)CN(C)CC2` (centres undefined) [WO2022098806, Compound 3-3] showed a pIC50 of 6.41. Turning to `CNC(=O)[C@H](C)c1ccc(Nc2ncc3cc(F)c(-c4cnc5c(c4C)NCCO5)cc3n2)cc1` [WO2022098806, Compound 1-117], the pIC50 was 10.15. The compound `Cc1c(-c2cc3nc(Nc4ccc5c(c4)CN(C)CC5)ncc3cc2F)cnc2c1NCCO2` [WO2022098806, Compound 1-114] gave a pIC50 of 10.05. Regarding `COc1cc2c(cc1Nc1ncc3ccc(NC4CCN(C)C4=O)cc3n1)CN(C)CC2` (centres undefined) [WO2022098806, Compound 3-49], the pIC50 was 7.01. `Cc1c(-c2cc3nc(Nc4ccc5c(c4)CN(C)[C@H](C)C5)ncc3c(N)c2F)cnc2c1NCCO2` [WO2022098806, Compound 2-86] showed a pIC50 of 10.40.

For the compound `Cc1c(-c2cc3nc(Nc4ccc(N5CCOC5=O)cc4)ncc3c(N)c2F)cnc2c1NCCO2` [WO2022098806, Compound 2-67], the pIC50 is 10.30. On to `CC(=O)N1CCCc2cc(Nc3ncc4c(N)c(F)c(-c5cnc6c(c5C)NCCO6)cc4n3)ccc21` [WO2022098806, Compound 2-7], for which the pIC50 was 9.96. As to `Cc1c(-c2c(F)c(N)c3cnc(Nc4cc5c(cc4F)CCN(C)C5)nc3c2Cl)cnc2c1NCCO2` [WO2022098806, Compound 2-184], the negative logarithm of the IC50 (pIC50) is 10.05. `Cc1c(-c2cc3nc(Nc4ccc(CS(=O)(=O)C(C)C)cc4)ncc3c(N)c2F)cnc2c1NCCO2` [WO2022098806, Compound 2-157] had a pIC50 of 10.15. To `CNC(=O)C1(c2ccc(Nc3ncc4c(N)c(F)c(-c5cnc6c(c5C)NCCO6)cc4n3)cc2)CC1` [WO2022098806, Compound 2-81] belongs 10.40; to `COc1cc2c(cc1Nc1ncc3ccc(NC[C@@H]4CC(=O)N(C)C4)cc3n1)CN(C)CC2` [WO2022098806, Compound 3-59], 6.44; to `CNC(=O)c1ccc(Nc2ncc3c(N)c(F)c(-c4cnc5c(c4C)NCCO5)cc3n2)cc1` [WO2022098806, Compound 2-23], 10.30. In turn, `COc1cc2c(cc1Nc1ncc3ccc(-c4cccc(NCC(C)=O)c4)cc3n1)CN(C)CC2` [WO2022098806, Compound 1-98] showed a pIC50 of 6.69. `COc1cc2c(cc1Nc1ncc3ccc(-c4cccc(S(=O)(=O)N5CCCCC5)c4)cc3n1)CNCC2` [WO2022098806, Compound 1-82] had a pIC50 of 7.82. Consider `COc1cc2c(cc1Nc1ncc3ccc(Nc4cccc(S(C)(=O)=O)c4)cc3n1)CN(C)CC2` [WO2022098806, Compound 3-33], for which the pIC50 is 7.74. For `COc1cc(CS(=O)(=O)C(C)C)ccc1Nc1ncc2c(N)c(F)c(-c3cnc4c(c3C)NCC(C)(C)O4)cc2n1` [WO2022098806, Compound 2-168], the pIC50 was 10.00.

In turn, `Cc1ccncc1-c1cc2nc(Nc3ccc(CS(C)(=O)=O)cc3)ncc2c(N)c1F` [WO2022098806, Compound 2-44] gave a pIC50 of 9.72. In turn, `Cc1c(-c2c(F)c(N)c3cnc(Nc4ccc(CS(C)(=O)=O)cc4F)nc3c2Cl)cnc2c1NCCO2` [WO2022098806, Compound 2-135] had a pIC50 of 9.89. In turn, `COc1cc2c(cc1Nc1ncc3ccc(N(C)CC4CNC(=O)O4)cc3n1)CN(C)CC2` (centres undefined) [WO2022098806, Compound 3-30] had a pIC50 of 6.83. For `CCS(=O)(=O)Cc1ccc(Nc2ncc3c(N)c(F)c(-c4cnc5c(c4C)NCCO5)cc3n2)c(F)c1` [WO2022098806, Compound 2-125], the pIC50 was 10.00 and 9.35 and 10.05. In turn, `COc1cc2c(cc1Nc1ncc3ccc(N4CC(CN)OC4=O)cc3n1)CN(C)CC2` (centres undefined) [WO2022098806, Compound 3-11] gave a pIC50 of 7.09. The compound `Cc1c(-c2cc3nc(Nc4ccccc4)ncc3c(N)c2F)cnc2c1NCCO2` [WO2022098806, Compound 2-25] gave a pIC50 of 9.57. `Cc1c(-c2cc3nc(Nc4ccc5c(c4)C4CC5CN4C)ncc3c(N)c2F)cnc2c1NCCO2` (centres undefined) [WO2022098806, Compound 2-79] gave a pIC50 of 10.52. `COc1cc2c(cc1Nc1ncc3ccc(NCC4CNC(=O)O4)cc3n1)CN(C)CC2` (centres undefined) [WO2022098806, Compound 3-26] gave a pIC50 of 6.83. `Cc1c(-c2cc3nc(Nc4ccc(CS(=O)(=O)C(C)C)cc4)ncc3cc2F)cnc2c1NCCO2` [WO2022098806, Compound 1-128]: the pIC50 was 10.10. In the case of `COc1cc2c(cc1Nc1ncc3c(N)c(F)c(-c4cnc5c(c4C)NCCO5)cc3n1)[C@@H](C)N(C)CC2` [WO2022098806, Compound 2-35], the pIC50 is 9.82. `CNC(=O)c1ccc(Nc2ncc3c(N)c(F)c(-c4cnc5c(c4C)NCCO5)cc3n2)c(OC)c1` [WO2022098806, Compound 2-74] gave a negative-log IC50 (pIC50) of 9.57.

For the compound `Cc1c(-c2cc3nc(Nc4ccc5c(c4)CN(C)CC5)ncc3c(N)c2F)cnc2cc[nH]c12` [WO2022098806, Compound 2-130], the pIC50 is 10.00. In the case of `CN1Cc2cc(Nc3ncc4c(N)c(F)c(-c5cnc6c(c5Cl)NCCO6)cc4n3)ccc2C2(CC2)C1` [WO2022098806, Compound 2-152], the pIC50 was 10.15. Take `Cc1c(-c2cc3nc(Nc4cc5c(cc4F)CCN(C(C)C)C5)ncc3c(N)c2F)cnc2c1NCCO2` [WO2022098806, Compound 2-171]: the pIC50 is 10.30. The compound `Cc1c(-c2ccc3cnc(Nc4ccc(CS(=O)(=O)C(C)C)cc4)nc3c2)cnc2c1NCCO2` [WO2022098806, Compound 1-129] showed a pIC50 of 10.05. In the case of `CC[C@H]1COC(=O)N1c1ccc2cnc(Nc3cc4c(cc3OC)CCN(C)C4)nc2c1` [WO2022098806, Compound 3-14], the pIC50 was 7.60. For `COc1nc(C2(C#N)CC2)ccc1Nc1ncc2c(N)c(F)c(-c3cnc4c(c3C)NCCO4)cc2n1` [WO2022098806, Compound 2-68], the pIC50 was 7.85.

In the case of `COc1cc2c(cc1Nc1ncc3c(N)c(F)c(-c4ccccc4-c4ccnn4C)cc3n1)CN(C)CC2` [WO2022098806, Compound 2-65], the negative-log IC50 (pIC50) is 7.77. `Cc1c(-c2cc3nc(Nc4ccc(S(C)(=O)=O)cc4)ncc3c(N)c2F)cnc2c1NCCO2` [WO2022098806, Compound 2-17] gave a pIC50 of 10.05. `CNC(=O)C1(c2ccc(Nc3ncc4cc(F)c(-c5cnc6c(c5C)NCCO6)cc4n3)cc2)CCC1` [WO2022098806, Compound 1-121]: the negative-log IC50 (pIC50) was 9.59. Turning to `CNC(=O)C(F)(F)c1ccc(Nc2ncc3c(N)c(F)c(-c4cnc5c(c4C)NCCO5)cc3n2)cc1` [WO2022098806, Compound 2-186], the pIC50 is 9.85. Consider `COc1cc2c(cc1Nc1ncc3ccc(-c4cnccc4Cl)cc3n1)CNCC2` [WO2022098806, Compound 1-37], for which the pIC50 was 7.55. To `Cc1c(-c2cc3nc(Nc4ccc5c(c4)CCN(C)CC5)ncc3c(N)c2F)cnc2c1NCCO2` [WO2022098806, Compound 2-119] belongs 10.40; to `COc1cc2c(cc1Nc1ncc3c(N)c(F)c(-c4cnc5c(c4C)NCCO5)cc3n1)CN(C)CC2(C)C` [WO2022098806, Compound 2-75], 9.48.

In the case of `CCS(=O)(=O)Cc1ccc(Nc2ncc3ccc(-c4cnc5c(c4C)NCCO5)cc3n2)cc1` [WO2022098806, Compound 1-134], the pIC50 is 10.40. `COc1cc2c(cc1Nc1ncc3ccc(N4CC(O)(C(F)(F)F)C4)cc3n1)CN(C)CC2` [WO2022098806, Compound 3-54]: the pIC50 was 6.72. Turning to `COc1cc2c(cc1Nc1ncc3ccc(NCC4CCS(=O)(=O)C4)cc3n1)CN(C)CC2` (centres undefined) [WO2022098806, Compound 3-37], the negative-log IC50 (pIC50) is 7.14.

As to `CNC(=O)Cc1ccc(Nc2ncc3cc(F)c(-c4cnc5c(c4C)NCCO5)cc3n2)cc1` [WO2022098806, Compound 1-130], the pIC50 was 10.15. The compound `Cc1c(-c2cc3nc(Nc4ccc5c(c4)CN(C)CC5)ncc3c(N)c2F)cnc2c1NCC(C)O2` (centres undefined) [WO2022098806, Compound 2-141] had a pIC50 of 10.30. `Cc1c(-c2cc3nc(Nc4ccc([C@H]5CCN(C)C5=O)cc4)ncc3cc2F)cnc2c1NCCO2` [WO2022098806, Compound 1-127] had a negative logarithm of the IC50 (pIC50) of 9.02.
